Test results taken from US10947188B2, “Small molecule ferroptosis inducers” (THE TRUSTEES OF COLUMBIA UNIVERSITY IN THE CITY OF NEW YORK, priority 2016, dated 2021).

Test system: BJeLR
Experiment: Modulatory profiling: Alamar Blue viability, lethal compound cotreated with death modulator (EC50, AUC)
Assay type: cell-based, human
Parameters: AUC, modulator BJ.Gd3+ / AUC, modulator BJ.LNAME / AUC, modulator BJ.Lmin / AUC, modulator BJ.3MA / AUC, modulator BJ.ALLN / AUC, modulator BJ.Boc D / AUC, modulator BJ.CHX / AUC, modulator BJ.Co2+ / AUC, modulator BJ.Nec-1 / AUC, modulator BJ.Pepstatin / AUC, modulator BJ.TLCK / AUC, modulator BJ.atoc / AUC, modulator BJ.trolox / AUC, modulator BJ.zVAD: unit not given beside the values
Details: for AUC, modulator BJ.3MA / AUC, modulator BJ.ALLN / AUC, modulator BJ.Boc D / AUC, modulator BJ.CHX / AUC, modulator BJ.Co2+ / AUC, modulator BJ.DPQ / AUC, modulator BJ.Gd3+ / AUC, modulator BJ.LNAME / AUC, modulator BJ.Lmin/NAD+ / AUC, modulator BJ.Lmin / AUC, modulator BJ.NAD+ / AUC, modulator BJ.NMMA / AUC, modulator BJ.Nec-1 / AUC, modulator BJ.Pepstatin / AUC, modulator BJ.TLCK / AUC, modulator BJ.atoc / AUC, modulator BJ.trolox / AUC, modulator BJ.zVAD: BJeLR cells, modulatory profile value (AUC); for AUC, modulator BJ.3MA: lethal compound cotreated with modulator 3MA; for AUC, modulator BJ.ALLN: lethal compound cotreated with modulator ALLN; for AUC, modulator BJ.Boc D: lethal compound cotreated with modulator Boc D; for AUC, modulator BJ.CHX: lethal compound cotreated with modulator CHX; for AUC, modulator BJ.Co2+: lethal compound cotreated with modulator Co2+; for AUC, modulator BJ.DPQ: lethal compound cotreated with modulator DPQ; for AUC, modulator BJ.Gd3+: lethal compound cotreated with modulator Gd3+; for AUC, modulator BJ.LNAME: lethal compound cotreated with modulator LNAME; for AUC, modulator BJ.Lmin/NAD+: lethal compound cotreated with modulator Lmin/NAD+; for AUC, modulator BJ.Lmin: lethal compound cotreated with modulator Lmin; for AUC, modulator BJ.NAD+: lethal compound cotreated with modulator NAD+; for AUC, modulator BJ.NMMA: lethal compound cotreated with modulator NMMA; for AUC, modulator BJ.Nec-1: lethal compound cotreated with modulator Nec-1; for AUC, modulator BJ.Pepstatin: lethal compound cotreated with modulator Pepstatin; for AUC, modulator BJ.TLCK: lethal compound cotreated with modulator TLCK; for AUC, modulator BJ.atoc: lethal compound cotreated with modulator atoc; for AUC, modulator BJ.trolox: lethal compound cotreated with modulator trolox; for AUC, modulator BJ.zVAD: lethal compound cotreated with modulator zVAD; for EC50: Homo sapiens, BJeLR, 48 h

CCOc1ccccc1-n1c(C(C)N2CCN(C(=O)COc3ccc(Cl)cc3)CC2)nc2ccccc2c1=O (centres unmarked) [erastin, reference compound]
AUC, modulator BJ.3MA: 0.09348
AUC, modulator BJ.ALLN: −0.05751
AUC, modulator BJ.Boc D: −0.0006165
AUC, modulator BJ.CHX: 0.09081
AUC, modulator BJ.Co2+: −0.1704
AUC, modulator BJ.DPQ: −0.005058
AUC, modulator BJ.Gd3+: −0.0388
AUC, modulator BJ.LNAME: −0.03971
AUC, modulator BJ.Lmin/NAD+: 0.1538
AUC, modulator BJ.Lmin: 0.1115
AUC, modulator BJ.NAD+: −0.02334
AUC, modulator BJ.NMMA: −0.05625
AUC, modulator BJ.Nec-1: 0.1665
AUC, modulator BJ.Pepstatin: 0.1892
AUC, modulator BJ.TLCK: 0.0155
AUC, modulator BJ.atoc: 0.3276
AUC, modulator BJ.trolox: 0.2492
AUC, modulator BJ.zVAD: −0.005301

CC1=CC(C)(C)Nc2ccc(OC(=O)c3cccnc3)cc21 [CIL47]
AUC, modulator BJ.3MA: 0.1505
AUC, modulator BJ.ALLN: −0.02628
AUC, modulator BJ.Boc D: 0.05397
AUC, modulator BJ.CHX: −0.0269
AUC, modulator BJ.Co2+: −0.1379
AUC, modulator BJ.DPQ: 0.06122
AUC, modulator BJ.Gd3+: −0.02875
AUC, modulator BJ.LNAME: −0.02479
AUC, modulator BJ.Lmin/NAD+: −0.01437
AUC, modulator BJ.Lmin: −0.01696
AUC, modulator BJ.NAD+: −0.06356
AUC, modulator BJ.NMMA: 0.04023
AUC, modulator BJ.Nec-1: −0.02203
AUC, modulator BJ.Pepstatin: 0.05454
AUC, modulator BJ.TLCK: −0.03768
AUC, modulator BJ.atoc: 0.03519
AUC, modulator BJ.trolox: −0.02806
AUC, modulator BJ.zVAD: −0.01497

Cc1ccc(O)c(/N=C/C=C/c2cccc(Br)c2)c1 [CIL27]
AUC, modulator BJ.3MA: 0.0403
AUC, modulator BJ.ALLN: −0.06604
AUC, modulator BJ.Boc D: −0.08049
AUC, modulator BJ.CHX: 0.1399
AUC, modulator BJ.Co2+: 0.05931
AUC, modulator BJ.DPQ: 0.0171
AUC, modulator BJ.Gd3+: −0.02406
AUC, modulator BJ.LNAME: −0.04381
AUC, modulator BJ.Lmin/NAD+: 0.02365
AUC, modulator BJ.Lmin: 0.01472
AUC, modulator BJ.NAD+: −0.01357
AUC, modulator BJ.NMMA: 0.009474
AUC, modulator BJ.Nec-1: −0.05452
AUC, modulator BJ.Pepstatin: 0.006509
AUC, modulator BJ.TLCK: −0.03065
AUC, modulator BJ.atoc: 0.002404
AUC, modulator BJ.trolox: 0.0004949
AUC, modulator BJ.zVAD: −0.003575

Cc1cccnc1Nc1nc(-c2ccccn2)cs1 [CIL13]
AUC, modulator BJ.3MA: 0.09083
AUC, modulator BJ.ALLN: −0.03933
AUC, modulator BJ.Boc D: −0.02989
AUC, modulator BJ.CHX: −0.1264
AUC, modulator BJ.Co2+: 0.5287
AUC, modulator BJ.DPQ: 0.007392
AUC, modulator BJ.Gd3+: 0.04263
AUC, modulator BJ.LNAME: 0.01544
AUC, modulator BJ.Lmin/NAD+: −0.05456
AUC, modulator BJ.Lmin: −0.03412
AUC, modulator BJ.NAD+: 0.01378
AUC, modulator BJ.NMMA: −0.03177
AUC, modulator BJ.Nec-1: 0.04738
AUC, modulator BJ.Pepstatin: 0.03784
AUC, modulator BJ.TLCK: 0.3412
AUC, modulator BJ.atoc: −0.005646
AUC, modulator BJ.trolox: −0.006649
AUC, modulator BJ.zVAD: −0.004568

COc1nn(-c2ccccc2)c(=O)c(Cl)c1Cl [CIL23]
AUC, modulator BJ.3MA: −0.01613
AUC, modulator BJ.ALLN: −0.04561
AUC, modulator BJ.Boc D: −0.01959
AUC, modulator BJ.CHX: −0.02303
AUC, modulator BJ.Co2+: −0.01594
AUC, modulator BJ.DPQ: 0.004379
AUC, modulator BJ.Gd3+: 0.03265
AUC, modulator BJ.LNAME: −0.02129
AUC, modulator BJ.Lmin/NAD+: 0.004125
AUC, modulator BJ.Lmin: −0.01617
AUC, modulator BJ.NAD+: 0.005104
AUC, modulator BJ.NMMA: −0.01242
AUC, modulator BJ.Nec-1: 0.03269
AUC, modulator BJ.Pepstatin: −0.001663
AUC, modulator BJ.TLCK: −0.007806
AUC, modulator BJ.atoc: 0.002315
AUC, modulator BJ.trolox: −0.02152
AUC, modulator BJ.zVAD: 0.04691

COC(=O)[C@@H]1Cc2c([nH]c3ccccc23)C(C)(C)N1C(=O)CCl [CIL79]
AUC, modulator BJ.3MA: 0.0798
AUC, modulator BJ.ALLN: 0.02717
AUC, modulator BJ.Boc D: 0.02938
AUC, modulator BJ.CHX: −0.04651
AUC, modulator BJ.Co2+: 0.1763
AUC, modulator BJ.DPQ: 0.003967
AUC, modulator BJ.Gd3+: 0.00956
AUC, modulator BJ.LNAME: 0.01544
AUC, modulator BJ.Lmin/NAD+: 0.2136
AUC, modulator BJ.Lmin: 0.2049
AUC, modulator BJ.NAD+: −0.00637
AUC, modulator BJ.NMMA: −0.008594
AUC, modulator BJ.Nec-1: 0.2258
AUC, modulator BJ.Pepstatin: 0.04063
AUC, modulator BJ.TLCK: 0.1984
EC50 (DMSO): 157 nM
EC50 (cotreated with Lmim_NAD): 566 nM
EC50 (cotreated with antioxidant Trolox): 8320 nM
EC50 (cotreated with antioxidant atoc): 7930 nM
EC50 (cotreated with iron-chelator Lmim): 667 nM
